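Cultured in 96-well plates, cells were exposed to test compound for 48 hours across five concentrations. GI50 = concentration required for 50% inhibition of growth.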 Calls of active or inactive are those of the source. No stated cut-off is given here; in the data, active = GI50 up to about 1.1 µM and inactive = higher.
How the values were obtained:
Assay in all cases: growth of human tumour cells (NCI), 48 h
[1] = test system: SK-OV-3
[2] = test system: U-251
[3] = test system: NCI-H226
[4] = test system: HOP-92
[5] = test system: DLD-1
[6] = test system: SF-295
[7] = test system: KM-20L2
[8] = test system: HCT-15
[9] = test system: UACC-257
[10] = test system: A549
[11] = test system: HCC 2998
[12] = test system: SNB-78
[13] = test system: COLO 205
[14] = test system: UO-31
[15] = test system: UACC-62
[16] = test system: RPMI-8226
[17] = test system: SN12C
[18] = test system: SK-MEL-5
[19] = test system: M14
[20] = test system: LXFL 529
[21] = test system: CAKI-1
[22] = test system: TK-10
[23] = test system: HT-29
[24] = test system: DMS-273
[25] = test system: HOP-62
[26] = test system: OVCAR-4
[27] = test system: A498
[28] = test system: NCI-H460
[29] = test system: K562
[30] = test system: MOLT-4
[31] = test system: SK-MEL-2
[32] = test system: DMS-114
[33] = test system: OVCAR-8
[34] = test system: OVCAR-5
[35] = test system: CCRF-CEM
[36] = test system: SNB-19
[37] = test system: SF-268
[38] = test system: RXF 631
[39] = test system: SNB-75
[40] = test system: IGROV-1
[41] = test system: SW-620
[42] = test system: 786-0
[43] = test system: HCT-116
[44] = test system: NCI-H522
[45] = test system: HL-60
[46] = test system: KM12
[47] = test system: Malme-3M
[48] = test system: HOP-18
[49] = test system: ACHN
[50] = test system: SF-539
[51] = test system: RXF 393
[52] = test system: LOX IMVI
[53] = test system: MCF7
[54] = test system: MDA-MB-435

SMILES: COc1cc(O)c(C(=O)C2Cc3ccccc32)c(OC)c1 (stereo not given)
- GI50 [1]: > 100 µM (inactive)
- GI50 [2]: 64.3 µM (inactive)
- GI50 [3]: 22.6 µM (inactive)
- GI50 [4]: 35.9 µM (inactive)
- GI50 [5]: 46.2 µM (inactive)
- GI50 [6]: 86.1 µM (inactive)
- GI50 [7]: 65.3 µM (inactive)
- GI50 [8]: 32.9 µM
- GI50 [9]: 47.3 µM (inactive)
- GI50 [10]: 35.8 µM (inactive)
- GI50 [11]: 49.1 µM (inactive)
- GI50 [12]: > 100 µM (inactive)
- GI50 [13]: > 100 µM (inactive)
- GI50 [14]: 33.5 µM (inactive)
- GI50 [15]: 57.5 µM (inactive)
- GI50 [16]: 16.8 µM (inactive)
- GI50 [17]: 46.5 µM (inactive)
- GI50 [18]: 29.6 µM (inactive)
- GI50 [19]: 33.9 µM (inactive)
- GI50 [20]: 34 µM (inactive)
- GI50 [21]: 25.6 µM (inactive)
- GI50 [22]: > 100 µM (inactive)
- GI50 [23]: 35.3 µM (inactive)
- GI50 [24]: 43.4 µM (inactive)
- GI50 [25]: > 100 µM (inactive)
- GI50 [26]: 64.4 µM (inactive)
- GI50 [27]: 30 µM (inactive)
- GI50 [28]: 61.8 µM (inactive)
- GI50 [29]: 32.7 µM (inactive)
- GI50 [30]: 16.9 µM (inactive)
- GI50 [31]: 34.3 µM (inactive)
- GI50 [32]: 27.4 µM (inactive)
- GI50 [33]: 48.3 µM (inactive)
- GI50 [34]: 35.7 µM (inactive)
- GI50 [35]: 19.8 µM (inactive)
- GI50 [36]: > 100 µM (inactive)
- GI50 [37]: 67.8 µM (inactive)
- GI50 [38]: 86.9 µM (inactive)
- GI50 [39]: 37.7 µM (inactive)
- GI50 [40]: > 100 µM (inactive)
- GI50 [41]: 59.7 µM (inactive)
- GI50 [42]: 44.2 µM (inactive)
- GI50 [43]: 38.6 µM (inactive)
- GI50 [44]: 32.7 µM (inactive)
- GI50 [45]: 13 µM (inactive)
- GI50 [46]: 32.4 µM (inactive)
- GI50 [47]: 35.8 µM (inactive)
- GI50 [48]: 34.4 µM (inactive)
- GI50 [49]: 50.7 µM (inactive)
- GI50 [50]: > 100 µM (inactive)
- GI50 [51]: 20.3 µM (inactive)
- GI50 [52]: 51.4 µM (inactive)

SMILES: CC[C@H]1CN2CCc3cc(OC)c(OC)cc3[C@@H]2C[C@@H]1C[C@H]1NCCc2cc(OC)c(OC)cc21
- GI50 [5]: 0.0358 µM (active)
- GI50 [7]: 0.0652 µM (active)
- GI50 [20]: 0.0276 µM (active)
- GI50 [24]: 0.043 µM (active)
- GI50 [29]: 0.0104 µM (active)
- GI50 [30]: 0.0161 µM (active)
- GI50 [38]: 0.0311 µM (active)
- GI50 [43]: 0.0149 µM (active)
- GI50 [44]: 0.0109 µM (active)
- GI50 [45]: 0.0148 µM (active)
- GI50 [48]: 0.0578 µM (active)
- GI50 [53]: 0.00347 µM (active)
- GI50 [54]: 0.0188 µM (active)
